{"source": "patent US10800812B2", "about": "“Compstatin analogs with increased solubility and improved pharmacokinetic properties” (The Trustees of the University of Pennsylvania, priority 2018, dated 2020)", "key": {"[1]": {"target": "T1, human C3b (Homo sapiens, UniProt P01024)", "T1 construct": "purchased Complement Technology, Inc., Tyler, Tex", "T1 sequence (P01024 23-667 limits assumed)": "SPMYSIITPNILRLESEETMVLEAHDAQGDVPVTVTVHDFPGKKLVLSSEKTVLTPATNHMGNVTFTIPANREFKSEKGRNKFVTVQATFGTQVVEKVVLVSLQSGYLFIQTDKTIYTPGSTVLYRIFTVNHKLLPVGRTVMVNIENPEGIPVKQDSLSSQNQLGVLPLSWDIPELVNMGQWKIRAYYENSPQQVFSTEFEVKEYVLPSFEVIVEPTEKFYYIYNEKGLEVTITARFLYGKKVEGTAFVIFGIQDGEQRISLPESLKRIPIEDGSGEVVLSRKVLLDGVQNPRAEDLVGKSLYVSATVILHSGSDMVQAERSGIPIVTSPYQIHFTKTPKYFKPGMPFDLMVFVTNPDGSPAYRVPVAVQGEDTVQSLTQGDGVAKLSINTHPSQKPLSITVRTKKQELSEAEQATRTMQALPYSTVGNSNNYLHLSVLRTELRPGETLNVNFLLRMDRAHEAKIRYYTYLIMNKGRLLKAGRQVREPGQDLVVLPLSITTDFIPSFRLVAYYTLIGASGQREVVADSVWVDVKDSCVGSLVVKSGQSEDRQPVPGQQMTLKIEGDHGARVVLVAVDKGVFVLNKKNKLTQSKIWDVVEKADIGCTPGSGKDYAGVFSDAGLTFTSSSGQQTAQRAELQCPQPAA", "T1 sequence (P01024 749-1663 partner limits assumed)": "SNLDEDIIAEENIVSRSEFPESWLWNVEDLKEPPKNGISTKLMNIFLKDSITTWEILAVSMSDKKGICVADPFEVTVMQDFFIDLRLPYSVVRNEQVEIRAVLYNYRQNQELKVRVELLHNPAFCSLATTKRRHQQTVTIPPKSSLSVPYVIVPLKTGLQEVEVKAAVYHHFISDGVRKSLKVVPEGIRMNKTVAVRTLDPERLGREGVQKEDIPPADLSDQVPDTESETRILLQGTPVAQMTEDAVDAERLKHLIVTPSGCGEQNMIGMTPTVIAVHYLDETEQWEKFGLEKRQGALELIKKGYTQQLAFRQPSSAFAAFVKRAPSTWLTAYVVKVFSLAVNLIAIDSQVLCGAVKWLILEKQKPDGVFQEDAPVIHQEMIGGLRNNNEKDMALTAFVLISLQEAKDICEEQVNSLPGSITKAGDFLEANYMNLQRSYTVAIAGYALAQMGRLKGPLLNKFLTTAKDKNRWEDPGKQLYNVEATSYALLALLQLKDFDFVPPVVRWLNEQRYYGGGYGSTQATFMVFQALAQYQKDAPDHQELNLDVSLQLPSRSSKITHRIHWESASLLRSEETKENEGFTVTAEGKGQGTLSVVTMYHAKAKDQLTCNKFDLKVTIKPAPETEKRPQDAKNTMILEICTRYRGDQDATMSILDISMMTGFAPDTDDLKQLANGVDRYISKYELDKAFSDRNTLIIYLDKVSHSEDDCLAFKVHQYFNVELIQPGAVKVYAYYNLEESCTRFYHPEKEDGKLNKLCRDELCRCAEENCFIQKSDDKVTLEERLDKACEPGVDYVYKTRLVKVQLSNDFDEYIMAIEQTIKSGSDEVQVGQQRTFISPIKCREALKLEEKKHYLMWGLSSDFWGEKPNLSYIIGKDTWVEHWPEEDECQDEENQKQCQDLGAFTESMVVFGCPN", "assay": "SPR binding affinity and kinetics with C3b", "settings": "25° C., 1:1 Langmuir model; read-out: ka, association constant"}, "[2]": {"assay": "Lys cleavage fragments in NHP plasma after s.c. injection (UPLC-ESI-MS)", "type": "in vivo, cynomolgus monkeys", "settings": "4 h after the s.c. injection of Cp40-KKK, one monkey"}, "[3]": {"system": "classical pathway activation (C3b deposition)", "assay": "Classical pathway activation ELISA (C3b deposition) with or without rabbit vitreous", "type": "biochemical, human", "settings": "in the absence of vitreous", "experimental": "An alternative explanation to the one presented above is that the vitreous contains additional unidentified factors that associate with the Cp40-KKK analog. To investigate whether an unidentified vitreous factor impacts the complement inhibitory activity of lysine containing compounds, complement activation assays were performed using vitreous samples. Briefly, human plasma was incubated with OVA-anti-OVA immune-complexes in the presence of serial dilutions of the Cp40-based analogs mixed with rabbit vitreous. Levels of classical pathway activation (C3b deposition) were determined by ELISA using a polyclonal anti-human C3 antibody conjugated with HRP (MP Biomedicals, Solon, Ohio) (FIG. 20)."}, "[4]": {"assay": "Solubility of Cp40-based analogs in PBS", "settings": "for pH of the peptide solution in PBS: at the solubility concentration; for solubility: PBS, pH 7.4, Conc. (solubility in PBS), PBS (pH 7.4)"}, "[5]": {"assay": "Pharmacokinetics after single i.v. injection", "parameters": "species or system cynomolgus monkeys", "settings": "cynomolgus monkey, in vivo, iv", "experimental": "In vivo pharmacokinetic studies were conducted, in which cynomolgus monkeys were administered single i.v. injections of mPEG(1k)-Cp40, mPEG(3k)-Cp40, Cp40-KK, or Cp40-KKK."}, "[6]": {"assay": "Residence time in the vitreous after intravitreal injection (WES / SPR competition assay)", "type": "in vivo, cynomolgus monkeys", "settings": "single i.v.t. injection 0.5 mg; days 14-90", "experimental": "To determine the residence time of mPEG(3k)-Cp40, mPEG(1k)-Cp40, Cp40-KK, and Cp40-KKK in the vitreous of cynomolgus macaques, these Cp40-based analogs were administered intravitreally (i.v.t.) to the animals after induction of light ketamine anesthesia (10-15 mg/kg, by intramuscular injection (i.m.)) and dilation of the pupils with tropicamide/phenylephrine ophthalmic solution (see Table 6 for study design).\nFor i.v.t. injection, the cynomolgus monkeys were anesthetized with a combination of ketamine (15-25 mg/kg, i.m.) and xylazine (2 mg/kg, i.m.) and the eye was cleaned with povidone-iodine solution. After application of oxybuprocaine hydrochloride solution (Benoxil® ophthalmic solution 0.4%) to the cornea as a local anesthetic, the Cp40-based analogs were administered to the animals by i.v.t. injection into either the right (G1, G3) or left (G2, G4) eye of each animal. Immediately following each injection, a single topical dose of 0.5% levofloxacin was administered. After i.v.t. injection of mPEG(3k)-Cp40, mPEG(1k)-Cp40, Cp40-KK, and Cp40-KKK, vitreous fluid samples (about 50 μL each) were withdrawn from Cp40-based analog-treated eyes on days 14, 28, 42, (G1, G2, G3, G4), 56, 73, 90 (G1, G2) (this was done either three times or six times). Samples were collected on ice and stored in a deep freezer (−79.3 to −68.5° C.) until further analysis. On day 73 and 90, about 100 μL of vitreous fluid from G1 and G2 were withdrawn. Presence and concentration of the Cp40-based analogs was determined using either the simple western technology (WES, ProteinSimple, San Jose, Calif.), or surface plasmon resonance (SPR)-based real-time measurement of binding kinetics on a Cp40-KKK immobilized chip (see detailed methods below). Similar results with regard to the intravitreal residence time and concentration levels of the test compounds were obtained regardless of the quantification method selected.\nTo quantify the levels of all test compounds in vitreous samples collected at different time points following i.v.t. injection (see FIG. 15), WES analysis was performed on a WES instrument (ProteinSimple, San Jose, Calif.) using a 2 to 40 kDa Separation Module and Anti-Rabbit Detection Module according to the manufacturers' instructions. In brief, undiluted eye vitreous samples were mixed with a Fluorescent Master Mix and heated at 95° C. for 5 min. The samples, blocking reagent, primary antibodies (in house developed anti-Cp40; 1:1000 in blocking reagent), HRP-conjugated secondary antibody (anti-rabbit IgG) and chemiluminescent substrate were pipetted into the plate (part of Separation Module). The used instrument settings were: stacking and separation at 375 V for 27 min; blocking reagent for 30 min, primary and secondary antibody both for 30 min; Luminol/peroxide chemiluminescence detection for ˜15 min (exposures of 5, 15, 30, 60, 120, 240, and 480 s). The resulting electropherograms were evaluated using the Compass software (ProteinSimple, San Jose, Calif.). The following criteria were used to discriminate low peptide signals from background: The peak signal-to-noise (S/N) ratio given by the software must be ≥10, and the peak height/baseline ratio (calculated manually from the peak height and baseline values given by the software) must be equal to or greater than 3. A five-point standard curve of known concentrations (100-2,000 nM) of peptide spiked in rabbit vitreous was used to calculate peptide concentration in the vitreous samples using the Compass software (Compass Software Inc., Atlanta, Ga.). […] Shown in FIG. 15 is a representative standard curve generated using the WES system and bands obtained upon running pre-determined amounts of purified peptide spiked into rabbit vitreous samples.\nTo corroborate the WES-based measurements for all test compounds, an SPR-based competition assay was developed for detecting Cp40 and Cp40 analogs in biological samples. […] The samples were heated at 95° C. for 5 min. […]"}, "[7]": {"assay": "physchem", "settings": "pH 7.4, Conc. (solubility in PBS)"}, "[8]": {"assay": "Pharmacokinetics after single i.m. injection", "settings": "cynomolgus monkey, in vivo, im, 25 mg/kg"}, "[9]": {"assay": "Pharmacokinetics in NHP plasma after single s.c. injection", "settings": "2 mg/kg, NHP plasma, two animals"}, "[10]": {"settings": "single s.c. 2 mg/kg, listed as Cp40-KK (SUM)"}}}
{"molecule": "CC[C@H](C)[C@H](NC(=O)[C@H](N)Cc1ccc(O)cc1)C(=O)N[C@H]1CSSC[C@@H](C(=O)N(C)[C@H](C(=O)N[C@@H](CCCCN)C(N)=O)[C@@H](C)CC)NC(=O)[C@H](CCCNC(=N)N)NC(=O)[C@H](Cc2c[nH]cn2)NC(=O)[C@H](C)NC(=O)CN(C)C(=O)[C@H](Cc2c[nH]c3ccccc23)NC(=O)[C@H](CC(=O)O)NC(=O)[C@H](CCC(N)=O)NC(=O)[C@H](Cc2cn(C)c3ccccc23)NC(=O)[C@H](C(C)C)NC1=O", "note": "[Cp40-K, DTyr-Ile-[Cys-Val-Trp(Me)-Gln-Asn-Trp-Sar-Ala-His-Arg-Cys]-mIle-Lys-NH2]", "values": [{"measurement": "kon", "setting": "[1]", "result": "1.98e+06", "unit": "M⁻¹ s⁻¹"}, {"measurement": "Cp40-K detectable in plasma", "setting": "[2]", "result": 5, "unit": "µM"}, {"measurement": "complement classical pathway inhibitory activity", "setting": "[3]", "result": "inhibitory activity in a dose-dependent manner"}, {"measurement": "pH of the peptide solution in PBS", "setting": "[4]", "result": 7.5}]}
{"molecule": "CC[C@H](C)[C@H](NC(=O)[C@H](N)Cc1ccc(O)cc1)C(=O)N[C@H]1CSSC[C@@H](C(=O)N(C)[C@H](C(=O)N[C@@H](CCCCN)C(=O)N[C@@H](CCCCN)C(N)=O)[C@@H](C)CC)NC(=O)[C@H](CCCNC(=N)N)NC(=O)[C@H](Cc2c[nH]cn2)NC(=O)[C@H](C)NC(=O)CN(C)C(=O)[C@H](Cc2c[nH]c3ccccc23)NC(=O)[C@H](CC(=O)O)NC(=O)[C@H](CCC(N)=O)NC(=O)[C@H](Cc2cn(C)c3ccccc23)NC(=O)[C@H](C(C)C)NC1=O", "note": "[Cp40-KK, DTyr-Ile-[Cys-Val-Trp(Me)-Gln-Asn-Trp-Sar-Ala-His-Arg-Cys]-mIle-Lys-Lys-NH2]", "values": [{"measurement": "kon", "setting": "[1]", "result": "3.94e+06", "unit": "M⁻¹ s⁻¹"}, {"measurement": "Lys cleavage in plasma upon i.v. injection", "setting": "[5]", "result": "metabolized to minimal amounts of Cp40-K"}, {"measurement": "half-life", "setting": "[5]; single i.v. injection 2 mg/kg", "result": 2950, "unit": "min"}, {"measurement": "detection in the vitreous at time points post-injection", "setting": "[6]", "result": "no longer detected on day 90"}, {"measurement": "complement classical pathway inhibitory activity", "setting": "[3]", "result": "inhibitory activity in a dose-dependent manner"}, {"measurement": "solubility", "setting": "[7]", "result": "> 245", "unit": "mg/mL"}, {"measurement": "half-life", "setting": "[8]", "result": "~8", "unit": "days"}, {"measurement": "AUC(0-t)", "setting": "[9]; male, cynomolgus monkey, plasma, sc, AUC0-t (0-120 h), single s.c. 2 mg/kg", "result": 329, "unit": "µM·h"}, {"measurement": "AUC(0-inf)", "setting": "[9]; male, cynomolgus monkey, plasma, sc, AUCinf, single s.c. 2 mg/kg", "result": 597, "unit": "µM·h"}, {"measurement": "Cmax", "setting": "[9]; male, cynomolgus monkey, plasma, sc, Cmax, single s.c. 2 mg/kg", "result": 12.9, "unit": "µM"}, {"measurement": "half-life", "setting": "[9]; male, cynomolgus monkey, plasma, sc, t1/2, single s.c. 2 mg/kg", "result": 6.04, "unit": "days"}, {"measurement": "Tmax", "setting": "[9]; male, cynomolgus monkey, plasma, sc, tmax, single s.c. 2 mg/kg", "result": 1, "unit": "h"}, {"measurement": "t1/2", "setting": "[9]; single s.c. 2 mg/kg", "result": 11.5, "unit": "days"}, {"measurement": "AUC0-t (0-120 h)", "setting": "[9]; [10]", "result": 257, "unit": "µM·h"}, {"measurement": "AUCinf", "setting": "[9]; [10]", "result": 755, "unit": "µM·h"}, {"measurement": "Cmax", "setting": "[9]; [10]", "result": 9.26, "unit": "µM"}]}
{"molecule": "CC[C@H](C)[C@H](NC(=O)[C@@H](Cc1ccc(O)cc1)NC(=O)CCOCCOCCOCCOCCOCCOCCOCCOCCOCCOCCOCCOC)C(=O)N[C@H]1CSSC[C@@H](C(=O)N(C)[C@H](C(N)=O)[C@@H](C)CC)NC(=O)[C@H](CCCNC(=N)N)NC(=O)[C@H](Cc2c[nH]cn2)NC(=O)[C@H](C)NC(=O)CN(C)C(=O)[C@H](Cc2c[nH]c3ccccc23)NC(=O)[C@H](CC(=O)O)NC(=O)[C@H](CCC(N)=O)NC(=O)[C@H](Cc2cn(C)c3ccccc23)NC(=O)[C@H](C(C)C)NC1=O", "note": "[mPEG(528)-Cp40]", "values": [{"measurement": "kon", "setting": "[1]", "result": "1e+06", "unit": "M⁻¹ s⁻¹"}, {"measurement": "solubility", "setting": "[4]", "result": 2.3, "unit": "mg/mL"}]}
{"molecule": "mPEG(2k)-Cp40: N-terminus of Cp40 coupled to polydisperse PEG chain of 2 kDa via amide coupling", "values": [{"measurement": "pH of the peptide solution in PBS", "setting": "[4]", "result": 7.5}]}
{"molecule": "CC[C@H](C)[C@H](NC(=O)[C@@H](Cc1ccc(O)cc1)NC(=O)CCOCCOCCOCCOCCOCCOCCOCCOCCOCCOCCOCCOCCOCCOCCOCCOCCOCCOCCOCCOCCOCCOCCOCCOC)C(=O)N[C@H]1CSSC[C@@H](C(=O)N(C)[C@H](C(N)=O)[C@@H](C)CC)NC(=O)[C@H](CCCNC(=N)N)NC(=O)[C@H](Cc2c[nH]cn2)NC(=O)[C@H](C)NC(=O)CN(C)C(=O)[C@H](Cc2c[nH]c3ccccc23)NC(=O)[C@H](CC(=O)O)NC(=O)[C@H](CCC(N)=O)NC(=O)[C@H](Cc2cn(C)c3ccccc23)NC(=O)[C@H](C(C)C)NC1=O", "note": "[mPEG(1056)-Cp40]", "values": [{"measurement": "kon", "setting": "[1]", "result": 720000, "unit": "M⁻¹ s⁻¹"}, {"measurement": "solubility", "setting": "[4]", "result": 137, "unit": "mg/mL"}]}
{"molecule": "mPEG(1k)-Cp40: N-terminus of Cp40 coupled to polydisperse PEG chain of 1 kDa via amide coupling", "values": [{"measurement": "AUC0-120 h", "setting": "[5]", "result": "304.4 to 312", "unit": "µM·h"}, {"measurement": "detection in the vitreous at time points post-injection", "setting": "[6]", "result": "detected at day 14 post injection but not in later time points"}]}
